MIC90 and selectivity ratio data for 22 molecules are collected here from ChEMBL document CHEMBL4118066, “QSAR-driven design, synthesis and discovery of potent chalcone derivatives with antitubercular activity” (Eur J Med Chem, 2017).

In brackets after ≈: the same amount, converted by molar mass.

Data set [1] deals with Mycobacterium tuberculosis. Briefly: Antitubercular activity against Mycobacterium tuberculosis H37Rv ATCC 27294 treated for 10 days under hypoxic condition followed by 28 hrs of normoxic recovery. It counts as functional.
In data set [2] the test system is Mycobacterium tuberculosis. Briefly: microbe, parasite or virus in culture. The class given is functional. To be noted: H37Rv ATCC 27294, 168 h.
Description: Antitubercular activity against Mycobacterium tuberculosis H37Rv ATCC 27294 after 7 days under normoxic condition by microplate Alamar blue assay
The subject of another data set is Staphylococcus aureus. The data set can be described thus: Antibacterial activity against Staphylococcus aureus ATCC 29213 after 16 to 20 hrs. The class given is functional.
The test system of the next data set is Mycobacterium marinum. The data set can be described thus: Antimycobacterial activity against Mycobacterium marinum ATCC 927 after 7 days under normoxic condition by microplate Alamar blue assay. It counts as functional. To be noted: ATCC 927, 168 h. Background: The colour change of resazurin is a common sign of viable cells or microbes.
For the next data set, the system named is Escherichia coli. The data set can be described thus: Antibacterial activity against Escherichia coli ATCC 25922 after 16 to 20 hrs. It counts as functional.
Data set [3] relates to Mycobacteroides abscessus. The data set can be described thus: Antimycobacterial activity against Mycobacterium abscessus ATCC 19977 after 7 days under normoxic condition by microplate Alamar blue assay. The settings on record: ATCC 19977, 168 h. It counts as functional.
The subject of a further data set is Mycobacteroides chelonae. Briefly: Antimycobacterial activity against Mycobacterium chelonae ATCC 35752 after 7 days under normoxic condition by microplate Alamar blue assay. To be noted: ATCC 35752, 168 h. The class given is functional.
The subject of another data set is Mycobacterium avium. The data set can be described thus: Antimycobacterial activity against Mycobacterium avium ATCC 15769 after 7 days under normoxic condition by microplate Alamar blue assay. The class given is functional. The settings on record: ATCC 15769, 168 h.
The next data set relates to Candida albicans. Briefly: Antifungal activity against Candida albicans ATCC 90028 after 36 to 48 hrs. The class given is functional.
The subject of data set [4] is Mycolicibacterium smegmatis. Briefly: Antimycobacterial activity against Mycobacterium smegmatis ATCC MC2155 after 7 days under normoxic condition by microplate Alamar blue assay. The settings on record: str. MC2 155, 168 h. The class given is functional.
For a further data set, the system named is Mycobacterium kansasii. Briefly: Antimycobacterial activity against Mycobacterium kansasii ATCC 12478 after 7 days under normoxic condition by microplate Alamar blue assay. It counts as functional. The settings on record: ATCC 12478, 168 h.
The nature of the next data set: in vitro. To be noted: monkey.

Description for in vitro: Selectivity index, ratio of IC50 for African green monkey Vero cells to MIC90 for Mycobacterium tuberculosis H37Rv ATCC 27294 under normoxic condition

`O=C(/C=C/c1ccco1)c1ccc(N2CCCCC2)cc1`: the MIC90 (in data set [1]; in data set [2]; in the data set with Staphylococcus aureus; in the data set with Mycobacterium marinum; in the data set with Escherichia coli; in data set [3]) was more than 10 µM each time. Moreover, the MIC90 (against Mycobacteroides chelonae; in the data set on Mycobacterium avium; against Candida albicans; in [4]; in the data set with Mycobacterium kansasii) was more than 10 µM each time.

`O=C(/C=C/c1ccc([N+](=O)[O-])o1)c1ccc(Br)cc1`: the MIC90 in data set [1] is 6.76 µM (≈ 2.18 µg/mL); in data set [2], 2.5 µM (≈ 0.805 µg/mL); in the data set with Staphylococcus aureus it was 0.36 µM (≈ 0.116 µg/mL); against Escherichia coli it was more than 10 µM; against Candida albicans, 4.93 µM (≈ 1.59 µg/mL); in data set [4], 7.12 µM (≈ 2.29 µg/mL).

On to `CC1(C)S[C@@H]2[C@H](NC(=O)[C@H](N)c3ccccc3)C(=O)N2[C@H]1C(=O)O` [AMPICILLIN], for which the MIC90 with Staphylococcus aureus was 0.25 µM (≈ 0.0874 µg/mL); in the data set on Escherichia coli it was 1.18 µM (≈ 0.412 µg/mL).

With `CC(C)(C)c1ccc(C(=O)/C=C/c2ccc([N+](=O)[O-])o2)cc1`, the MIC90 was more than 10 µM in data set [1]; 0.35 µM (≈ 0.105 µg/mL) in data set [2]; more than 10 µM in the data set on Staphylococcus aureus; more than 10 µM with Escherichia coli; more than 10 µM with Candida albicans; more than 10 µM in data set [4]. Further, the selectivity ratio in “in vitro” (Vero cells) was determined as 284.

Consider `O=C(/C=C/c1cccc([N+](=O)[O-])c1)c1ccc(N2CCCCC2)cc1`, for which the MIC90 (in [1]; in data set [2]; in the data set on Staphylococcus aureus; in the data set with Mycobacterium marinum; with Escherichia coli; in data set [3]) was more than 10 µM throughout. The MIC90 (against Mycobacteroides chelonae; with Mycobacterium avium; with Candida albicans; in [4]; against Mycobacterium kansasii) was more than 10 µM in each case.

For the molecule `COc1ccc(/C=C/C(=O)c2ccc(-c3ccccc3)cc2)cc1`, the MIC90 in data set [1] was more than 10 µM; in data set [2], more than 10 µM; in the data set on Staphylococcus aureus it was 1.18 µM (≈ 0.371 µg/mL); with Mycobacterium marinum, more than 10 µM; in the data set on Escherichia coli, more than 10 µM; in data set [3], more than 10 µM. Moreover, the MIC90 (against Mycobacteroides chelonae; in the data set on Mycobacterium avium; against Candida albicans; in data set [4]; in the data set on Mycobacterium kansasii) was more than 10 µM throughout.

Turning to `O=C(/C=C/c1ccc([N+](=O)[O-])s1)c1ccc(N2CCOCC2)cc1`, the MIC90 (in data set [1]; in [2]; against Staphylococcus aureus; in the data set with Mycobacterium marinum; against Escherichia coli; in data set [3]) was more than 10 µM in each case. For the same molecule, the MIC90 is more than 10 µM against Mycobacteroides chelonae; more than 10 µM in the data set on Mycobacterium avium; more than 10 µM against Candida albicans; more than 10 µM in data set [4]; 8.27 µM (≈ 2.85 µg/mL) against Mycobacterium kansasii.

Consider `Cc1ccc(C(=O)/C=C/c2ccc([N+](=O)[O-])s2)cc1`, for which the MIC90 was 2.05 µM (≈ 0.56 µg/mL) in data set [1]; 1.87 µM (≈ 0.511 µg/mL) in [2]; more than 10 µM in the data set with Staphylococcus aureus; more than 10 µM in the data set on Mycobacterium marinum; more than 10 µM against Escherichia coli; more than 10 µM in data set [3]. In addition, the MIC90 with Mycobacteroides chelonae is more than 10 µM; against Mycobacterium avium it was 2.3 µM (≈ 0.629 µg/mL); in the data set on Candida albicans, more than 10 µM; in data set [4] it was more than 10 µM; in the data set with Mycobacterium kansasii, 1.54 µM (≈ 0.421 µg/mL).

`O=C(/C=C/c1ccc([N+](=O)[O-])o1)c1ccc(N2CCCC2)cc1`: the MIC90 is 4.3 µM (≈ 1.34 µg/mL) in [1]; more than 10 µM in data set [2]; more than 10 µM against Staphylococcus aureus; more than 10 µM in the data set with Mycobacterium marinum; more than 10 µM in the data set on Escherichia coli; more than 10 µM in [3]. The MIC90 in the data set on Mycobacteroides chelonae is more than 10 µM; against Mycobacterium avium, more than 10 µM; in the data set with Candida albicans, more than 10 µM; in data set [4] it was more than 10 µM; in the data set on Mycobacterium kansasii it was 0.39 µM (≈ 0.122 µg/mL).

Turning to `NNC(=O)c1ccncc1` [ISONIAZID], the MIC90 was more than 256 µM in data set [1], 0.41 µM (≈ 0.0562 µg/mL) in data set [2] and more than 10 µM in data set [4].

In the case of `C[C@@H]1[C@H](O)[C@@H](C)/C=C/C=C/C=C/C=C/C=C/C=C/C=C/[C@H](O[C@@H]2O[C@H](C)[C@@H](O)[C@H](N)[C@@H]2O)C[C@@H]2O[C@](O)(C[C@@H](O)C[C@@H](O)[C@H](O)CC[C@@H](O)C[C@@H](O)CC(=O)O[C@H]1C)C[C@H](O)[C@H]2C(=O)O` [AMPHOTERICIN B], the MIC90 with Candida albicans is less than 0.004 µM.

Turning to `CO[C@H]1/C=C/O[C@@]2(C)Oc3c(C)c(O)c4c(O)c(c(/C=N/N5CCN(C)CC5)c(O)c4c3C2=O)NC(=O)/C(C)=C\C=C\[C@H](C)[C@H](O)[C@@H](C)[C@@H](O)[C@@H](C)[C@H](OC(C)=O)[C@@H]1C` [RIFAMPIN], the values for the MIC90 in data set [1], in data set [2] and in data set [4] were 0.19 µM (≈ 0.156 µg/mL), 0.05 µM (≈ 0.0411 µg/mL) and more than 10 µM, respectively. Also, the selectivity ratio in “in vitro” (vero) stood at 2000.

For the molecule `O=C(/C=C/c1ccc([N+](=O)[O-])cc1)c1ccc(N2CCCCC2)cc1`, the MIC90 (in data set [1]; in data set [2]; against Staphylococcus aureus; with Mycobacterium marinum; in the data set with Escherichia coli; in [3]) was more than 10 µM in each case. Also, the MIC90 (with Mycobacteroides chelonae; against Mycobacterium avium; in the data set on Candida albicans; in data set [4]; against Mycobacterium kansasii) was more than 10 µM throughout.

`O=C(/C=C/c1ccc([N+](=O)[O-])o1)c1ccc(N2CCCCC2)cc1`: the MIC90 in data set [1] was 10.9 µM (≈ 3.56 µg/mL); in [2], 3.42 µM (≈ 1.12 µg/mL); against Staphylococcus aureus, more than 10 µM; in the data set with Escherichia coli it was more than 10 µM; with Candida albicans, more than 10 µM; in data set [4], more than 10 µM.

For the molecule `O=C(/C=C/c1ccc(Cl)s1)c1ccc(-n2ccnc2)cc1`, the MIC90 in data set [1] was 9.75 µM (≈ 3.07 µg/mL); in data set [2] it was 9.29 µM (≈ 2.92 µg/mL); in the data set with Staphylococcus aureus, more than 10 µM; against Mycobacterium marinum it was more than 10 µM; in the data set with Escherichia coli it was more than 10 µM; in [3], more than 10 µM. The MIC90 with Mycobacteroides chelonae is more than 10 µM; in the data set on Mycobacterium avium, more than 10 µM; against Candida albicans, more than 10 µM; in data set [4] it was more than 10 µM; with Mycobacterium kansasii, 9.17 µM (≈ 2.89 µg/mL).

With `O=C(/C=C/c1ccc([N+](=O)[O-])o1)c1ccc(N2CCNCC2)cc1`, the MIC90 was 9.67 µM (≈ 3.17 µg/mL) in [1]; 0.27 µM (≈ 0.0884 µg/mL) in data set [2]; more than 10 µM against Staphylococcus aureus; more than 10 µM with Escherichia coli; more than 10 µM against Candida albicans; more than 10 µM in data set [4]. Besides, in the data set “in vitro” (Vero cells), the selectivity ratio worked out at 359.

In the case of `O=C(/C=C/c1ccc([N+](=O)[O-])s1)c1ccc(C2CCCCC2)cc1`, the MIC90 in data set [1] was 5.75 µM (≈ 1.96 µg/mL); in data set [2], more than 10 µM; against Staphylococcus aureus, more than 10 µM; against Mycobacterium marinum, more than 10 µM; against Escherichia coli, more than 10 µM; in data set [3], more than 10 µM. Besides, the MIC90 against Mycobacteroides chelonae was more than 10 µM; against Mycobacterium avium, 5.99 µM (≈ 2.05 µg/mL); against Candida albicans, more than 10 µM; in [4] it was more than 10 µM; against Mycobacterium kansasii, 9.26 µM (≈ 3.16 µg/mL).

Consider `CC(C)(C)c1ccc(C(=O)/C=C/c2ccco2)cc1`, for which the MIC90 (in [1]; in data set [2]; in the data set on Staphylococcus aureus; in the data set with Mycobacterium marinum; with Escherichia coli; in data set [3]) was more than 10 µM each time. The MIC90 (in the data set on Mycobacteroides chelonae; in the data set with Mycobacterium avium; in the data set with Candida albicans; in data set [4]; against Mycobacterium kansasii) was more than 10 µM throughout.

With `O=C(/C=C/c1ccc([N+](=O)[O-])o1)c1ccc(C2CCCCC2)cc1`, the MIC90 in data set [1] was 3.33 µM (≈ 1.08 µg/mL); in [2], 0.81 µM (≈ 0.264 µg/mL); in the data set on Staphylococcus aureus, more than 10 µM; against Escherichia coli, more than 10 µM; in the data set with Candida albicans it was more than 10 µM; in [4], more than 10 µM. Also, the selectivity ratio in the data set “in vitro” (Vero cells) turned out to be 122.

Turning to `CN(C)c1ccc(/C=C/C(=O)c2ccc(-c3ccccc3)cc2)cc1`, the MIC90 (in data set [1]; in data set [2]; in the data set with Staphylococcus aureus; against Mycobacterium marinum; against Escherichia coli; in data set [3]) was more than 10 µM in each case. Moreover, the MIC90 (with Mycobacteroides chelonae; in the data set on Mycobacterium avium; in the data set with Candida albicans; in [4]; with Mycobacterium kansasii) was more than 10 µM in each case.

As for `CSc1ccc(C(=O)/C=C/c2ccco2)cc1`, the MIC90 (in data set [1]; in data set [2]; against Staphylococcus aureus; with Mycobacterium marinum; in the data set on Escherichia coli; in data set [3]) was more than 10 µM in each case. The MIC90 (against Mycobacteroides chelonae; in the data set with Mycobacterium avium; with Candida albicans; in data set [4]; with Mycobacterium kansasii) was more than 10 µM in each case.

`CC(C)(C)c1ccc(C(=O)/C=C/c2ccc[nH]2)cc1`: the MIC90 (in data set [1]; in data set [2]; against Staphylococcus aureus; with Mycobacterium marinum; against Escherichia coli; in data set [3]) was more than 10 µM in each case. Moreover, the MIC90 (in the data set on Mycobacteroides chelonae; against Mycobacterium avium; with Candida albicans; in [4]; in the data set on Mycobacterium kansasii) was more than 10 µM in each case.
